Experimental findings from the kinase profiling compilation of Christmann-Franck et al. (2016) are described below.

As usually defined, the residual activity is the signal under treatment as a percentage of the control signal.

Sequence of PRKACG (human) (P22612 whole entry, looked up): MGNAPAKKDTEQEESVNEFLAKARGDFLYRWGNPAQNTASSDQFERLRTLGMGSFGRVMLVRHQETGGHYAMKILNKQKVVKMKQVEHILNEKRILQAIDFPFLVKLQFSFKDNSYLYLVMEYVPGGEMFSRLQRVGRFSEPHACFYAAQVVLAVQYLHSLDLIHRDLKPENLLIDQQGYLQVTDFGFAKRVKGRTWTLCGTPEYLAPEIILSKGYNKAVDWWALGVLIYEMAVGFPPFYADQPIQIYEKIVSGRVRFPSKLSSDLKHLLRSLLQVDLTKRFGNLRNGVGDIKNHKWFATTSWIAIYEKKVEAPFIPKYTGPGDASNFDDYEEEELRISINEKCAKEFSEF
Sequence of PRKCB1 (human) (P05771 whole entry, looked up): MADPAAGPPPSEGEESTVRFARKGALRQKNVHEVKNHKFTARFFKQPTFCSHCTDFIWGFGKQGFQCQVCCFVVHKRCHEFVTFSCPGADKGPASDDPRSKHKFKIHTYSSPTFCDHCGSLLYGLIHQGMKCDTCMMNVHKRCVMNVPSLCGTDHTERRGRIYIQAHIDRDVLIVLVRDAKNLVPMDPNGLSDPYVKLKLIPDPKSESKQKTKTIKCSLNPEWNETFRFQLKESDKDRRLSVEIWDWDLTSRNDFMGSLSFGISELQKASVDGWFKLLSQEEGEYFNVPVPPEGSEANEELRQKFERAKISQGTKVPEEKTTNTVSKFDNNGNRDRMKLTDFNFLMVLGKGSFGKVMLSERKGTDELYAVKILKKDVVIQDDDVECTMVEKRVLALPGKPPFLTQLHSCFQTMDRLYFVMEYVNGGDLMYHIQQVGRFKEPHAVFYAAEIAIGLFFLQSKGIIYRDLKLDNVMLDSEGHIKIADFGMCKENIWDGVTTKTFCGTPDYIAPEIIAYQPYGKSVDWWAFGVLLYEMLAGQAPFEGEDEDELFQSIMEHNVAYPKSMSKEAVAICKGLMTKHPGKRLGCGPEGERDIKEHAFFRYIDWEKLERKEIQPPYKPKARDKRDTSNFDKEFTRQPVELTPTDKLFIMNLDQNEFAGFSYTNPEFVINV
Sequence of WNK3 (human) (Q9BYP7 whole entry, looked up): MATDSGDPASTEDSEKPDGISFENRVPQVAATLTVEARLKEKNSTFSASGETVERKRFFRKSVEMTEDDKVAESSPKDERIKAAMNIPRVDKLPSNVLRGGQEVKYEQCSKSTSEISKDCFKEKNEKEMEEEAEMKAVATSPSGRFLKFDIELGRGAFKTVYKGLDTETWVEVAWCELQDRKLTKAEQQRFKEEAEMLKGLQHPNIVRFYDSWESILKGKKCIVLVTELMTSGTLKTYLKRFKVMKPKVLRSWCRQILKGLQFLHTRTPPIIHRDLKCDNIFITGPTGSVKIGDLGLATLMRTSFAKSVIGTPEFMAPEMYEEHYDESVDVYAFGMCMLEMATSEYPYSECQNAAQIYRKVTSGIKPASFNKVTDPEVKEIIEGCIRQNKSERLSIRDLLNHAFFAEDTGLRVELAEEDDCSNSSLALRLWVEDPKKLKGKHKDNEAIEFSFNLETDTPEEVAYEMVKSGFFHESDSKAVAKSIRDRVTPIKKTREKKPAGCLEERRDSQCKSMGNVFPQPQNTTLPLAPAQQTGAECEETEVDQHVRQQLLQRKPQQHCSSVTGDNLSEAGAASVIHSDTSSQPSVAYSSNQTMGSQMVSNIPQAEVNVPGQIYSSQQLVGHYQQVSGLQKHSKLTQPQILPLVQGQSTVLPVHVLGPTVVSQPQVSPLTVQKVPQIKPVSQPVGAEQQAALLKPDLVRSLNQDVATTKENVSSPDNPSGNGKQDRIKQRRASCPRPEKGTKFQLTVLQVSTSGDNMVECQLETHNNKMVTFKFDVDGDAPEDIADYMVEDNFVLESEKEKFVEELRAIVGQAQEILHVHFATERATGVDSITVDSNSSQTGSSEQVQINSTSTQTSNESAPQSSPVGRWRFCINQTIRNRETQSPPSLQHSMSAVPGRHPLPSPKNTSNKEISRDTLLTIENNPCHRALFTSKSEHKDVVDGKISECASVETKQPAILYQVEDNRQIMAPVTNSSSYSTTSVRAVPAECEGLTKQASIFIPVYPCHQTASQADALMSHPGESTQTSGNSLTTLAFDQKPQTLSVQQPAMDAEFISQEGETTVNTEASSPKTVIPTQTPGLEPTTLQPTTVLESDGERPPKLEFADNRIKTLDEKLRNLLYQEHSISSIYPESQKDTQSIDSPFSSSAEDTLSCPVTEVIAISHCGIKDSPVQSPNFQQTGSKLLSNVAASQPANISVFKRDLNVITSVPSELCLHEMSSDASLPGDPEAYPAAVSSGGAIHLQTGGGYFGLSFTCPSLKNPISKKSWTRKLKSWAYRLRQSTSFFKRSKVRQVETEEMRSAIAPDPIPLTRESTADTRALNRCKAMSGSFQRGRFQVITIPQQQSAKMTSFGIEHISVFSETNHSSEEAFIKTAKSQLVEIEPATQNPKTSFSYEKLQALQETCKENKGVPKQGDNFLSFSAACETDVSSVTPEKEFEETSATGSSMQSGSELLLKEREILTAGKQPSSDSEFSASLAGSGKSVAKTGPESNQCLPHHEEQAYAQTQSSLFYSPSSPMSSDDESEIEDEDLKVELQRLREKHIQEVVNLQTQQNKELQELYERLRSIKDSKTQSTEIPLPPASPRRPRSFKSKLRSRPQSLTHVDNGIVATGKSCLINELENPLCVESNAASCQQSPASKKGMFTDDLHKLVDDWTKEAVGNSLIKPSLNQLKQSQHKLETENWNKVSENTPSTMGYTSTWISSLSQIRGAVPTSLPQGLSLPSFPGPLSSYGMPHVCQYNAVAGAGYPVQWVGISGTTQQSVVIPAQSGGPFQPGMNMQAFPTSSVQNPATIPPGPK
Sequence of TXK (human) (P42681 whole entry, looked up): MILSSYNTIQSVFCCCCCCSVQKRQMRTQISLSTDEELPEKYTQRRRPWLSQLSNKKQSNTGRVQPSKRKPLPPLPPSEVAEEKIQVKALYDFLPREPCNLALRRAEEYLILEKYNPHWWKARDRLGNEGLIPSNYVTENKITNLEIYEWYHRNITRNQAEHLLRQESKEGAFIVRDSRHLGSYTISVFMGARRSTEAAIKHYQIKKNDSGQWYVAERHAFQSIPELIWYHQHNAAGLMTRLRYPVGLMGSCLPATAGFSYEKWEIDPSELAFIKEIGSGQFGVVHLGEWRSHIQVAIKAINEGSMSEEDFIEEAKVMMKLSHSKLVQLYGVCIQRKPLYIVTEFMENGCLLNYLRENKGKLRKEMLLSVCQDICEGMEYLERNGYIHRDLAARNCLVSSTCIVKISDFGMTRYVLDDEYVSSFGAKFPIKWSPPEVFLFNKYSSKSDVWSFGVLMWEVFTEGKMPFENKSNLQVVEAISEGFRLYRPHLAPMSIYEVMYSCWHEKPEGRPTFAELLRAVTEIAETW
Sequence of PHKG2 (human) (P15735 whole entry, looked up): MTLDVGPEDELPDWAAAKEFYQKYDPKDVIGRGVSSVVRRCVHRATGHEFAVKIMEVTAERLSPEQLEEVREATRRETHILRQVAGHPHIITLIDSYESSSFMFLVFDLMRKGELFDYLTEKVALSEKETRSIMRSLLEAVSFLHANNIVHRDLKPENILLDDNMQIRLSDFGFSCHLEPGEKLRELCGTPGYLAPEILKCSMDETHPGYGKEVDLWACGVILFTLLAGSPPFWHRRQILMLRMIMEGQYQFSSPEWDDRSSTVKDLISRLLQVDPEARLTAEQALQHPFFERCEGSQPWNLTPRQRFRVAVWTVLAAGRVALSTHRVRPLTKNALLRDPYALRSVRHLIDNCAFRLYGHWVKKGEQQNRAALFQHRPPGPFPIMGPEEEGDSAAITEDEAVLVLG

One assay deals with MAPK11 (human) (UniProt Q15759). In words: radiometric filter-binding kinase assay, Kinase HotSpot. As to conditions: compound 0.5 µM; ATP 10 µM.
Turning to `O=C1Nc2ccc(Cl)cc2/C1=C/c1cc(Cl)c(O)c(Cl)c1`, the residual activity is 99.2%.
Same read-out and setting: with `O=C1NC(=O)/C(=C/c2ccc3c(c2)OC(F)(F)O3)S1` the figure was 95.7%; with `N#CC(C#N)=C(N)/C(C#N)=C/c1ccc(O)cc1`, 100%.

For another assay, the target named is MAPK12 (human) (UniProt P53778). The description is as above. As to conditions: compound 0.5 µM; ATP 10 µM.
In the case of `O=C1Nc2ccc(Cl)cc2/C1=C/c1cc(Cl)c(O)c(Cl)c1`, the residual activity is 90.5%.
Same read-out and setting: as for `O=C1NC(=O)/C(=C/c2ccc3c(c2)OC(F)(F)O3)S1`, the figure is 92.8%; as for `N#CC(C#N)=C(N)/C(C#N)=C/c1ccc(O)cc1`, 92.6%.

The target in a further assay is MET (human) (UniProt P08581). The description is as above. As to conditions: compound 0.5 µM; ATP 10 µM.
On to `O=C1Nc2ccc(Cl)cc2/C1=C/c1cc(Cl)c(O)c(Cl)c1`, for which the residual activity was 96.4%.
On the same count and under the same terms, with `O=C1NC(=O)/C(=C/c2ccc3c(c2)OC(F)(F)O3)S1` the figure was 96.2%; with `N#CC(C#N)=C(N)/C(C#N)=C/c1ccc(O)cc1`, 117%.

In another assay the target is NLK (human) (UniProt Q9UBE8). Described as above. The settings on record: compound 0.5 µM; ATP 10 µM.
In the case of `O=C1Nc2ccc(Cl)cc2/C1=C/c1cc(Cl)c(O)c(Cl)c1`, the residual activity came to 38.9%.
Still for that read-out and setting: as for `O=C1NC(=O)/C(=C/c2ccc3c(c2)OC(F)(F)O3)S1`, the figure is 93.8%; as for `N#CC(C#N)=C(N)/C(C#N)=C/c1ccc(O)cc1`, 96.7%.

Another assay concerns the target PAK2 (human) (UniProt Q13177). Described as above. As to conditions: compound 0.5 µM; ATP 10 µM.
`O=C1Nc2ccc(Cl)cc2/C1=C/c1cc(Cl)c(O)c(Cl)c1`: the residual activity turned out to be 96.8%.
On the same count and under the same terms, with `O=C1NC(=O)/C(=C/c2ccc3c(c2)OC(F)(F)O3)S1` the figure was 99.9%; with `N#CC(C#N)=C(N)/C(C#N)=C/c1ccc(O)cc1`, 86%.

Another assay concerns the target PHKG2 (human) (UniProt P15735). The assay is described as above. The settings on record: compound 0.5 µM; ATP 10 µM.
With `O=C1Nc2ccc(Cl)cc2/C1=C/c1cc(Cl)c(O)c(Cl)c1`, the residual activity amounted to 98.4%.
For the molecule `O=C1NC(=O)/C(=C/c2ccc3c(c2)OC(F)(F)O3)S1`, the residual activity is 95.2%.
Consider `N#CC(C#N)=C(N)/C(C#N)=C/c1ccc(O)cc1`, for which the residual activity came out at 96.7%.

A further assay deals with PIM1 (human) (UniProt P11309). Described as above. The settings on record: compound 0.5 µM; ATP 10 µM.
For the molecule `O=C1Nc2ccc(Cl)cc2/C1=C/c1cc(Cl)c(O)c(Cl)c1`, the residual activity came out at 19.4%.
On the same count and under the same terms, with `O=C1NC(=O)/C(=C/c2ccc3c(c2)OC(F)(F)O3)S1` the figure was 35.9%; with `N#CC(C#N)=C(N)/C(C#N)=C/c1ccc(O)cc1`, 103%.

A further assay addresses PRKACG (human) (UniProt P22612). Described as above. The settings on record: compound 0.5 µM; ATP 10 µM.
Regarding `O=C1Nc2ccc(Cl)cc2/C1=C/c1cc(Cl)c(O)c(Cl)c1`, the residual activity worked out at 99.2%.
The same measure, in the same setting: as for `O=C1NC(=O)/C(=C/c2ccc3c(c2)OC(F)(F)O3)S1`, the figure is 102%.
Take `N#CC(C#N)=C(N)/C(C#N)=C/c1ccc(O)cc1`: the residual activity turned out to be 96.8%.

A further assay concerns the target PRKCB1 (human) (UniProt P05771). The description is as above. As to conditions: compound 0.5 µM; ATP 10 µM.
With `O=C1Nc2ccc(Cl)cc2/C1=C/c1cc(Cl)c(O)c(Cl)c1`, the residual activity is 97.3%.
On the same count and under the same terms, as for `O=C1NC(=O)/C(=C/c2ccc3c(c2)OC(F)(F)O3)S1`, the figure is 97.7%.
Turning to `N#CC(C#N)=C(N)/C(C#N)=C/c1ccc(O)cc1`, the residual activity was 114%.

In a further assay the target is PRKD1 (human) (UniProt Q15139). The assay is described as above. As to conditions: compound 0.5 µM; ATP 10 µM.
For the molecule `O=C1Nc2ccc(Cl)cc2/C1=C/c1cc(Cl)c(O)c(Cl)c1`, the residual activity came out at 91.5%.
On the same count and under the same terms, with `O=C1NC(=O)/C(=C/c2ccc3c(c2)OC(F)(F)O3)S1` the figure was 94.8%; with `N#CC(C#N)=C(N)/C(C#N)=C/c1ccc(O)cc1`, 101%.

In a further assay the target is PRKX (human) (UniProt P51817). The assay is described as above. The settings on record: compound 0.5 µM; ATP 10 µM.
With `O=C1Nc2ccc(Cl)cc2/C1=C/c1cc(Cl)c(O)c(Cl)c1`, the residual activity was 92.1%.
Same read-out and setting: with `O=C1NC(=O)/C(=C/c2ccc3c(c2)OC(F)(F)O3)S1` the figure was 101%.
The same measure, in the same setting: as for `N#CC(C#N)=C(N)/C(C#N)=C/c1ccc(O)cc1`, the figure is 93.7%.

The next assay deals with RPS6KA1 KD1 KD2 (human) (UniProt Q15418). The description is as above. As to conditions: compound 0.5 µM; ATP 10 µM.
`O=C1Nc2ccc(Cl)cc2/C1=C/c1cc(Cl)c(O)c(Cl)c1`: the residual activity was determined as 48.4%.
Still for that read-out and setting: with `O=C1NC(=O)/C(=C/c2ccc3c(c2)OC(F)(F)O3)S1` the figure was 71.1%.
On the same count and under the same terms, with `N#CC(C#N)=C(N)/C(C#N)=C/c1ccc(O)cc1` the figure was 93.8%.

The next assay deals with RPS6KA2 KD1 KD2 (human) (UniProt Q15349). Described as above. The settings on record: compound 0.5 µM; ATP 10 µM.
As for `O=C1Nc2ccc(Cl)cc2/C1=C/c1cc(Cl)c(O)c(Cl)c1`, the residual activity came to 71.9%.
The same measure, in the same setting: as for `O=C1NC(=O)/C(=C/c2ccc3c(c2)OC(F)(F)O3)S1`, the figure is 97.3%.
Still for that read-out and setting: with `N#CC(C#N)=C(N)/C(C#N)=C/c1ccc(O)cc1` the figure was 96.2%.

The next assay concerns the target RPS6KA5 KD2 (human) (UniProt O75582). The assay is described as above. The settings on record: compound 0.5 µM; ATP 10 µM.
`O=C1Nc2ccc(Cl)cc2/C1=C/c1cc(Cl)c(O)c(Cl)c1`: the residual activity stood at 86.1%.
Still for that read-out and setting: with `O=C1NC(=O)/C(=C/c2ccc3c(c2)OC(F)(F)O3)S1` the figure was 91.1%; with `N#CC(C#N)=C(N)/C(C#N)=C/c1ccc(O)cc1`, 96.7%.

The next assay concerns the target SGK2 (human) (UniProt Q9HBY8). Described as above. The settings on record: compound 0.5 µM; ATP 10 µM.
As for `O=C1Nc2ccc(Cl)cc2/C1=C/c1cc(Cl)c(O)c(Cl)c1`, the residual activity worked out at 89.2%.
Same read-out and setting: with `O=C1NC(=O)/C(=C/c2ccc3c(c2)OC(F)(F)O3)S1` the figure was 82.2%; with `N#CC(C#N)=C(N)/C(C#N)=C/c1ccc(O)cc1`, 110%.

The target of the next assay is STK17A (human) (UniProt Q9UEE5). Described as above. As to conditions: compound 0.5 µM; ATP 10 µM.
Take `O=C1Nc2ccc(Cl)cc2/C1=C/c1cc(Cl)c(O)c(Cl)c1`: the residual activity worked out at 78.9%.
Same read-out and setting: as for `O=C1NC(=O)/C(=C/c2ccc3c(c2)OC(F)(F)O3)S1`, the figure is 90.4%; as for `N#CC(C#N)=C(N)/C(C#N)=C/c1ccc(O)cc1`, 72.8%.

For a further assay, the target named is TEK (human) (UniProt Q02763). Described as above. The settings on record: compound 0.5 µM; ATP 10 µM.
For `O=C1Nc2ccc(Cl)cc2/C1=C/c1cc(Cl)c(O)c(Cl)c1`, the residual activity worked out at 93%.
As to `O=C1NC(=O)/C(=C/c2ccc3c(c2)OC(F)(F)O3)S1`, the residual activity was found to be 91.9%.
On the same count and under the same terms, with `N#CC(C#N)=C(N)/C(C#N)=C/c1ccc(O)cc1` the figure was 104%.

The target of another assay is TNK2 (human) (UniProt Q07912). Described as above. The settings on record: compound 0.5 µM; ATP 10 µM.
Regarding `O=C1Nc2ccc(Cl)cc2/C1=C/c1cc(Cl)c(O)c(Cl)c1`, the residual activity was 32.4%.
Same read-out and setting: as for `O=C1NC(=O)/C(=C/c2ccc3c(c2)OC(F)(F)O3)S1`, the figure is 93.3%; as for `N#CC(C#N)=C(N)/C(C#N)=C/c1ccc(O)cc1`, 98.1%.

A further assay addresses TXK (human) (UniProt P42681). Described as above. The settings on record: compound 0.5 µM; ATP 10 µM.
For the molecule `O=C1Nc2ccc(Cl)cc2/C1=C/c1cc(Cl)c(O)c(Cl)c1`, the residual activity amounted to 86.6%.
As for `O=C1NC(=O)/C(=C/c2ccc3c(c2)OC(F)(F)O3)S1`, the residual activity came to 95.4%.
Consider `N#CC(C#N)=C(N)/C(C#N)=C/c1ccc(O)cc1`, for which the residual activity was 100%.

For a further assay, the target named is ULK2 (human) (UniProt Q8IYT8). The assay is described as above. The settings on record: compound 0.5 µM; ATP 10 µM.
Sequence of ULK2 (human) (Q8IYT8 whole entry, looked up): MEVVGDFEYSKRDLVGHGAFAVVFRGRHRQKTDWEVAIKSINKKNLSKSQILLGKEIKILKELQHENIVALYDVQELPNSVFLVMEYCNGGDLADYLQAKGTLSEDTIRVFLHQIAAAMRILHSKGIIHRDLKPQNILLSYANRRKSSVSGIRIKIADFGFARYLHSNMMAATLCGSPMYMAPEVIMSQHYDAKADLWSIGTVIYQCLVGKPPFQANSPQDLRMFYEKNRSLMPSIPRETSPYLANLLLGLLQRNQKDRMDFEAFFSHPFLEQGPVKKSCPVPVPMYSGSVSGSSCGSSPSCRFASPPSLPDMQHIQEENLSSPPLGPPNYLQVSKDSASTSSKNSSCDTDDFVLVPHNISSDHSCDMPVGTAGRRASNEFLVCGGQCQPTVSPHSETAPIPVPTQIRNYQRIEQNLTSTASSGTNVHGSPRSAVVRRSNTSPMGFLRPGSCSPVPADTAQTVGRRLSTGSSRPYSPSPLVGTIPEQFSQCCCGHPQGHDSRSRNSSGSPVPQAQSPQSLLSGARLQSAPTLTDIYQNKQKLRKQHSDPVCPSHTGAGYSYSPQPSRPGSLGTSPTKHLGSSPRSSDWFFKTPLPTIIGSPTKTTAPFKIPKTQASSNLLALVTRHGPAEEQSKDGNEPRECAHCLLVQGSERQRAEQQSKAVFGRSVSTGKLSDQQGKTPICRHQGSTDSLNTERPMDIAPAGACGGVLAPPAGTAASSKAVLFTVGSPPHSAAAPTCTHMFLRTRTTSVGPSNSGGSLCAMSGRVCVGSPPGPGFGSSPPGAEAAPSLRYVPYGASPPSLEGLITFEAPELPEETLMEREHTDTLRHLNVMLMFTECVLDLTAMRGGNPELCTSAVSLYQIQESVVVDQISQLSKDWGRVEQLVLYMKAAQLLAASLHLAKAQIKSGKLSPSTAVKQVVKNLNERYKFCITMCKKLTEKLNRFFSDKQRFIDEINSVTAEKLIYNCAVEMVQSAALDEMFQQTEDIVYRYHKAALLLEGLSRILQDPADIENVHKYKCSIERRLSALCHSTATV
Take `O=C1Nc2ccc(Cl)cc2/C1=C/c1cc(Cl)c(O)c(Cl)c1`: the residual activity stood at 101%.
The same measure, in the same setting: as for `O=C1NC(=O)/C(=C/c2ccc3c(c2)OC(F)(F)O3)S1`, the figure is 100%.
Still for that read-out and setting: as for `N#CC(C#N)=C(N)/C(C#N)=C/c1ccc(O)cc1`, the figure is 105%.

Another assay has as its target WNK3 (human) (UniProt Q9BYP7). The assay is described as above. The settings on record: compound 0.5 µM; ATP 10 µM.
With `O=C1Nc2ccc(Cl)cc2/C1=C/c1cc(Cl)c(O)c(Cl)c1`, the residual activity was 90.7%.
As for `O=C1NC(=O)/C(=C/c2ccc3c(c2)OC(F)(F)O3)S1`, the residual activity was 91.5%.
Consider `N#CC(C#N)=C(N)/C(C#N)=C/c1ccc(O)cc1`, for which the residual activity stood at 99.8%.
